Laboratory results reported in publication PMC9458062, “^131I-C19 Iodide Radioisotope and Synthetic I-C19 Compounds as K-Ras4B–PDE6δ Inhibitors: A Novel Approach against Colorectal Cancer—Biological Characterization, Biokinetics and Dosimetry” (Molecules, 2022).
pIC50: −log10 of the molar value.

Assays:
[1] = test system: micronuclei; details: mice, 30 mg/kg; cited from earlier work
[2] = test system: CMT93 (mice colorectal cancer) allograft tumors; design: method as in PMID 19569179; details: 30 min post-injection; cited from earlier work
[3] = test system: bone marrow polychromatic erythrocytes; assay: Genotoxicity, bone marrow micronucleus assay; details: 24 h, per 2000 PCEs (vehicle 7 ± 2)
Experimental: The test compounds were intraperitoneally administered once, as a solution, at a concentration of 15 mg/kg of 5-fluorouracil (5-Fu) and 30 mg/kg of C19 or I-C19. Bone marrow cells were obtained 24 h after treatment and stained with Giemsa-Wright (Diff-Quick; Harleco; Gibbstown, NJ, USA). Two-thousand polychromatic erythrocytes were counted per animal using an optical microscope at 100× magnification to determine the number of micronucleated polychromatic erythrocytes.

[4] = test system: HCT116; assay: XTT cell viability; format: cell-based, human; details: HCT116, 8.8 µM, 1.44 Bq/cell, 72 h
Experimental: (§1) The human CRC cell lines, LoVo (ATCC® CCL-229™), SW620 (ATCC® CCL-227™) and HCT116 (ATCC® CCL-247™), were acquired from ATCC and cultured in F12K medium (Kaighn’s Modification of Ham’s F-12 Medium), DMEM-F12 medium and RPMI-1640 medium, (ATCC, Manassas, VA, USA), respectively. The human colorectal fibroblast CCD-18Co line was grown in an EMEM medium (ATCC, Manassas, VA, USA). The media were added with 10% fetal bovine serum and a 1% penicillin/streptomycin solution. Cells were incubated at 37 °C in a humidified atmosphere of 5% CO2.
(§2) The CCD-18Co, SW620, LoVo and HCT116 cell lines were plated in 96-well plates at a density of 10^4 cells/well for 24 h to allow for adherence. Then, the cells were treated with the I-C19 compound for 72 h. Cell viability was evaluated by the XTT (2,3-bis[2-methoxy-4-nitro-5-sulfophenyl]-2H-tetrazolium-5-carboxyanilide) assay kit (Roche, Germany), based on to the manufacturer’s instructions. The required I-C19 concentration, which produced fifty percent cell death at 72 h, was calculated by fitting a model with Prism software (GraphPad Software, San Diego, CA, USA).
(§3) For the assessment of dual therapy, beta radiation emission from ^131I-labeled C19 was also evaluated. The mitochondrial dehydrogenase activity in living HCT116, LoVo and SW620 cells was considered to measure the contribution of ^131I beta radiation to cell death, and the cell viability analysis was carried out after exposure to concentrations ten times lower than the IC50 obtained for each cancer cell line (8.8, 1.8 and 6.8 µM, respectively). Cell viability was evaluated by the XTT (2,3-bis[2-methoxy-4-nitro-5-sulfophenyl]-2H-tetrazolium-5-carboxyanilide) assay kit (Roche, Germany), based on to the manufacturer’s instructions. Briefly, colorectal cancer cell lines at a density of 10^4 cells/well were seeded in 96-well microtiter plates. The viability after treatment was measured 72 h (incubation in 5% CO2, 85% humidity and 37 °C). The absorbance in each well was recorded in a microplate reader (Epoch; BioTek Instruments; Winooski, VT, USA) at 450 nm. […]

[5] = test system: SW620; assay: XTT cell viability; format: cell-based, human; details: SW620, 6.8 µM, 1.44 Bq/cell, 72 h
Experimental: as §1, §2, §3

[6] = test system: LoVo; assay: XTT cell viability; format: cell-based, human; details: 1.8 µM, 1.44 Bq/cell, 72 h
Experimental: as §1, §2, §3

[7] = Biodistribution and biokinetic models; format: in vivo, Nu/Nu mice with LoVo xenograft tumors
Experimental: ^131I-C19 was intraperitoneally injected (200 µL, 5 MBq (135 µCi/mice)) into nu/nu mice. The mice (n = 3) were euthanized at 0.5, 1, 3, 5, 24, 48, 92 and 144 h post-injection. Whole tumor, lung, liver, pancreas, spleen, kidney, large intestine (colon) and blood were rinsed and placed into pre-weighed plastic test tubes. The activity was determined in a NaI(Tl) detector (Canberra) along with three 0.5 mL aliquots of the diluted standard, representing 100% of the injected activity and used for radioactive decay correction. Mean activity values in each organ were correlated with those of the standard (representing the initial injected activity) to obtain the percentage of injected dose (% ID) at different times. The % ID values of each organ or tumor were input into the Olinda/EXM 2.0 software and adjusted to exponential functions (first-order kinetics) to obtain biokinetic models corrected by radioactive decay ( qh(t) ) (Equation (2)), which corresponded to the I-C19 compound. Likewise, the Ah(t) functions, which corresponded to the ^131I-C19 biokinetic models, were obtained considering λeff as =λB+λR , where the biological constant is represented by λB and the ^131I − radioactive decay constant is λR (Equation (3)). (2) qh(t)=Ah(t)×e^λR = Be^(−λBb)t+Ce^(−λBc)t+De^(−λBd)t (3) Ah(t)=Be^−(λBb+λR)t+Ce^−(λBc+λR)t+De^−(λBd+λR)t

[8] = test system: HCT116; assay: Cell uptake, internalization and radiation absorbed dose to the nucleus; format: cell-based, human; details: for total uptake in the cell membrane (of the total radioactivity): 1.44 Bq/cell
Experimental: (§4) The HCT116, LoVo and SW620 cells were seeded in 48-well tissue culture plates at a density of 10^5 cells/well. After 24 h, the cells were exposed to 1.44 Bq/cell of ^131I-C19 (200 μL) at 37 °C for 1, 3 and 5 h. After treatment, two washes (1 mL of ice-cold PBS) were performed. For the calculation of the cell uptake, the cells in each well were treated (at room temperature for 5 min) with 500 μL of glycine buffer (50 mM, pH 2.8). Then, this fraction was removed, and the radioactivity was measured in a NaI (Tl) detector (BCL, San Rafael CA, USA). To evaluate the ^131I-C19 internalization, the cells were incubated with 1 mL of NaOH 0.3 M (at room temperature for 10 min). Once more, the radioactivity was measured in a NaI (Tl) detector (BCL, San Rafael CA, USA). A 100% standard solution (200 μL) of ^131I-C19 was also measured (n = 5). The uptake (%) (plasmatic membrane) and internalization (%) (cytoplasm) were used to obtain the radiation absorbed dose.
(§5) For estimation of the radiation absorbed doses to the HCT116, LoVo and SW620 cells’ nuclei, Equation (1) was used:(1) DN←source=(NCS×DFN←CS)+(NCy×DFN←Cy) where DN←source denotes the mean absorbed dose to the nucleus from source regions (i.e., cell surface—CS; cytoplasm—Cy); NCS and NCy are the total nuclear transformations occurring in the membrane and cytoplasm, respectively, calculated from the mathematical integration (from t = 0 to t = ∞) of the activity estimated in the internalization and cell uptake experiments; DFN←CS and DFN←Cy represent the dose factors specific for [^131I] from the cell surface (plasmatic membrane) and cytoplasm regions to the nucleus configuration. The dose factor geometries were obtained from S values (HCT116 cell radius = 10 μm, nucleus radius = 5 μm; LoVo and SW620 cell radius = 10 μm, nucleus radius = 6 μm).

[9] = test system: SW620; assay: as above; format: cell-based, human; details: for total uptake in the cell membrane (of the total radioactivity): 1.44 Bq/cell
Experimental: as §4, §5

[10] = test system: LoVo; assay: as above; format: cell-based, human; details: for total uptake in the cell membrane (of the total radioactivity): 1.44 Bq/cell
Experimental: as §4, §5

[11] = test system: colorectal cancer cell lines; assay: Cell uptake, initial; format: cell-based, human; details: before the 3 h increase
Experimental: as §4

[12] = test system: γ-H2AX foci in HCT116; assay: DNA double-stranded breaks, γ-H2AX foci assay; format: cell-based, human
Experimental: (§6) For the evaluation of DNA double-stranded breaks (DSBs), the phosphorylation of the Ser-139 gamma histone variant H2AX (γH2AX) was used as a biomarker. Cells, diluted to a suitable concentration, were grown on a glass slide after exposure to I-C19 or ^131I-labeled C19 (1.8, 6.8 and 8.8 µM for the cell lines LoVo, SW620 and HCT116, respectively) for 3 h. The anti-phospho-histone H2A.X (ser139) (1:200; CST, Boston, MA, USA) antibody was used as the primary antibody. The Alexa-488-conjugated anti-rabbit IgG was used for the visualization of γH2AX. […] To quantify the foci, clear and easily distinguishable dots were counted. At least 30 cells were imaged per slide, and the average number of foci per cell was calculated.

[13] = test system: γ-H2AX foci in SW620; assay: DNA double-stranded breaks, γ-H2AX foci assay; format: cell-based, human; details: SW620, 6.8 µM, 3 h
Experimental: as §6

[14] = test system: γ-H2AX foci in LoVo; assay: DNA double-stranded breaks, γ-H2AX foci assay; format: cell-based, human; details: 1.8 µM, 3 h
Experimental: as §6

[15] = test system: colon adenocarcinoma; assay: AOM/DSS colorectal cancer mouse model; format: in vivo, C57BL/6 male mice; details: AOM/DSS mice
Experimental: Aberrant glands formed these lesions, and the cells that formed them presented atypical nuclei with evident nucleoli and loss of mucus production. The percentage of mice colorectal tissue affected with these lesions was considered as the percentage of colon adenocarcinoma in mice.
Six-week-old C57BL/6 male mice, with a weight of approximately 20 g, were intraperitoneally injected with a single dose of azoxymethane (AOM) (10 mg/kg). […] For the control group, the same procedure was performed with normal intraperitoneal saline and pure drinking water instead of the AOM/DSS treatment.
Paraffin sections of colon tumor samples were deparaffinized in xylene and rehydrated in a series of graded alcohols. Antigens were retrieved in 0.01 M sodium citrate buffer and 0.1M EDTA-Tris buffer (Novocastra™ Epitope Retrieval Solutions, cat. RE7113; Leica Biosystems). Samples were incubated in 0.9% H2O2 for 5 min, followed by 1 h of blocking in 1% BSA in PBS. […] Then, the samples were developed with the Betazoid DAB Chromogen Kit (Cat. BDB2004H; BIOCARE Medical), counter-stained with hematoxylin and mounted with synthetic resin solution (Entallan.107960; Merck).

[16] = test system: CCD-18Co; design: method as in PMID 30382908; details: CCD-18Co healthy cell line; cited from earlier work

For `O=P1(N(CCCl)CCCl)NCCCO1` (stereo not drawn) [CP, Cyclophosphamide], the induction of micronuclei [1] is listed as “strong”.

For `[125I-].[Na+]` [Na[^125I]], the “activity in tumor tissue” value [2] is given as 9.1 % ID/g.

In the case of `O=c1[nH]cc(F)c(=O)[nH]1` [5-Fu, 5-fluorouracil, reference compound], the “frequency of micronucleated polychromatic erythrocytes (MNPCEs)” value ([3]; 15 mg/kg single intraperitoneal injection) was 27 ± 4.

With `COc1ccc(CNC(C)C(=O)Nc2cc([131I])ccc2[131I])cc1OC` (stereo not drawn) [^131I-C19] the “cell viability compared to unlabeled I-C19 at the same concentration” value [4] was “viability significantly decreased”, the “cell viability compared to unlabeled I-C19 at the same concentration” value [5] was “viability significantly decreased” and the “cell viability compared to unlabeled I-C19 at the same concentration” value [6] was “viability significantly decreased”. For the same compound, the “activity concentration in the tumor tissue” value ([7]; LoVo tumor, after 1 h) was 4.4 % ID/g, the route of excretion ([7]; biodistribution, 5 MBq intraperitoneal) was “renal and hepatobiliary excretion” and the “remaining fraction of activity cleared slowly from the blood” value ([7]; intraperitoneal, fitted biexponential model) was 10.2%. The “internalized activity into the cytoplasm” value ([8]; HCT116, 3 h) was 2.45 ± 0.21%, the “total uptake in the cell membrane (of the total radioactivity)” value (“total uptake in the cell membrane” for short) ([8]; HCT116, 3 h) was 43.6 ± 4.7% and the “internalized activity into the cytoplasm” value ([8]; HCT116, 5 h) was 1.63 ± 0.05%. For the same compound, the “total uptake in the cell membrane” value ([8]; HCT116, 5 h) was 1.63 ± 0.34%, the “internalized activity into the cytoplasm” value ([9]; SW620, 3 h) was 2.66 ± 0.30% and the “total uptake in the cell membrane” value ([9]; SW620, 3 h) was 45.6 ± 6.7%. The “internalized activity into the cytoplasm” value ([9]; SW620, 5 h) was 1.44 ± 0.14%, the “total uptake in the cell membrane” value ([9]; SW620, 5 h) was 25.62 ± 4.71% and the “internalized activity into the cytoplasm” value ([10]; 3 h) was 2.90 ± 0.82%. The “total uptake in the cell membrane” value ([10]; 3 h) was 40.2 ± 6.4%, the “internalized activity into the cytoplasm” value ([10]; 5 h) was 0.30 ± 0.04% and the “total uptake in the cell membrane” value ([10]; 5 h) was 1.80 ± 0.18%. The initial uptake [11] was 3.28–3.6%, the “γ-H2AX foci, ^131I-C19 vs. I-C19 at the same concentration” value ([12]; HCT116, 8.8 µM, 3 h) was “almost three times more γ-H2AX foci” and the “level of DSBs relative to the control” value ([12]; HCT116, exposure to ^131I beta radiation) was “six times higher than the control”. For the same compound, the “γ-H2AX foci increase, ^131I-C19 vs. I-C19 at the same concentration” value [13] was 2.3 times and the “γ-H2AX foci increase, ^131I-C19 vs. I-C19 at the same concentration” value [14] was 2.1 times.

In the case of `COc1ccc(CN[C@@H](C)C(=O)Nc2cc(Cl)ccc2Cl)cc1OC` [C19, (2S)-N-(2,5-dichlorophenyl)-2-[(3,4-dimethoxyphenyl)methylamine]propanamide], the “percentage of colon adenocarcinoma” value ([15]; 30 mg/kg intraperitoneally every day for 12 days (vehicle 7–8%)) is given as 5–6%, the “CEA marker, IHC” value ([15]; 30 mg/kg, 12 days (vehicle 65%)) is given as 12.5 % of neoplastic tissue and the pIC50 [16] is given as 4.22. The “frequency of micronucleated polychromatic erythrocytes (MNPCEs)” value ([3]; 30 mg/kg single intraperitoneal injection, not significant) was 12 ± 1.
